Measured values from patent publication US9132140B2, “Boronic acid derivatives and therapeutic uses thereof” (Rempex Pharmaceuticals, Inc., priority 2013, dated 2015).

Assays:
KPC-2 [1] = target: T1, KPC-2 (Klebsiella pneumoniae, UniProt Q9F663); assay: Inhibition of purified class A carbapenemase, biapenem cleavage; assay type: biochemical; settings: substrate biapenem 100 μM
KPC-2 [2] = target: T1, KPC-2; assay: Inhibition of purified beta-lactamase, nitrocefin cleavage; assay type: biochemical; settings: read-out: Ki (KPC-2, NCF)
Protocol: Purified enzymes were mixed with various concentrations of inhibitors in reaction buffer and incubated for 10 min at room temperature. Nitrocefin was added and substrate cleavage profiles were recorded at 490 nm every 10 sec for 10 min.

ECM6703 (pUCP24-NDM-1) = assay: microbe, parasite or virus in culture; assay type: cell-based, E. coli; settings: NDM-1 producing strain; compound fixed 4 μg/ml or 8 μg/ml
ECM6711 (pUCP24-VIM-1) = assay: microbe, parasite or virus in culture; assay type: cell-based, E. coli; settings: VIM-1 producing strain; compound fixed 4 μg/ml or 8 μg/ml
[3] = system: panel of clinical isolates expressing class A, B and D carbapenemases; assay: Carbapenem potentiation MIC, whole panel; assay type: cell-based; settings: all strains of the panel; compound fixed 5 μg/ml
From the text: The results are present in Table 6.
The results are present in Table 7.

T1 sequence (Q9F663 25-293, looked up, species assumed): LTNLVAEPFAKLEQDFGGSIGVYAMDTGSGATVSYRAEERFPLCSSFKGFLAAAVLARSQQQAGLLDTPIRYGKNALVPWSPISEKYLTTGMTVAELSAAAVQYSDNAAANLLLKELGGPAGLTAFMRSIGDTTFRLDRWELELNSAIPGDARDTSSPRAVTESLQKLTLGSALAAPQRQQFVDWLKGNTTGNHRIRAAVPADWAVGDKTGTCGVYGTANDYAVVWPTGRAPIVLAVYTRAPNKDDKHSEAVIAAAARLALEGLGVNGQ

## O=C(O)c1cccc2c1OB(O)[C@@H](Sc1nncs1)C2 [Compound 1, (R)-3-(1,3,4-thiadiazol-2-ylthio)-2-hydroxy-3,4-dihydro-2H-benzo[e][1,2]oxaborinine-8-carboxylic acid]
KPC-2 [1]
  Ki: 10 to 100 nM
KPC-2 [2]
  Ki: 100 to 1000 nM
ECM6703 (pUCP24-NDM-1)
  imipenem MIC in the presence of compound: decreased to the level of the strain containing empty vector
ECM6711 (pUCP24-VIM-1)
  imipenem MIC in the presence of compound: decreased to the level of the strain containing empty vector
[3]
  carbapenem MIC in the presence of compound: significantly reduced
